Consider 1 molecule from publication PMC2939063, “In Vitro and In Vivo Studies of the Trypanocidal Properties of WRR-483 against Trypanosoma cruzi” (PLoS Neglected Tropical Diseases, 2010).

The target in assay [1] is T1, Cruzain (Trypanosoma cruzi, UniProt P25779).
T1 construct: made in house
Briefly: Cruzain enzyme assay (acetate buffer pH 5.5, Z-Phe-Arg-AMC). Format: biochemical. Conditions: 100 mM sodium acetate pH 5.5, 5 mM DTT. Here is the method: Cruzain[27],[28], rhodesain [29], and tbcatB [30] were recombinantly expressed as described previously. TbcatB assays were performed as described previously.[31] Cruzain (2 nM) or rhodesain (3 nM) was incubated with 0.5 to 10 µM inhibitor concentration in 100 mM sodium acetate at pH 5.5, containing 5 mM DTT (buffer A) for 5 min at room temperature. Then buffer A containing Z-Phe-Arg-AMC (Bachem, K M = 1 µM) was added to enzyme inhibitor to give 20 µM substrate concentration in 200 µL, and the increase in fluorescence (excitation at 355 nm and emission at 460 nm) was followed with an automated microtiter plate spectrofluorometer (Molecular Devices, Flex station). Inhibitor stock solutions were prepared at 20 mM in DMSO, and serial dilutions were made in DMSO (0.7% DMSO in assay). Controls were performed using enzyme alone and enzyme with DMSO. IC50 values were determined graphically using inhibitor concentrations in the linear portion of a plot of inhibition versus log[I] […]
Inhibitor dilutions which produce simple exponential progress curves over a wide range of k obs, were used to determine kinetic parameters. The value of k obs, the rate constant for loss of enzyme activity, was determined from an equation for pseudo first order dynamics using Prism 4.0 (GraphPad). When k obs varied linearly with inhibitor concentration, k ass was determined by linear regression analysis. […]

In assay [2] the test system is T. cruzi infected J774 macrophages. Briefly: T. cruzi growth inhibition in infected J774 macrophages (cell survival). Conditions: 10 µM inhibitor every 48 h until Day 27, experiment terminated on Day 47, untreated control 6 days. Format: cell-based, Trypanosoma cruzi CA-I/72. How it is done:
CA-I/72 T. cruzi parasites were isolated from a chronic Chagasic patient, cloned, and maintained as previously described.[33]
For growth inhibition studies, J774 macrophages cultured in RPMI-1640 medium with 5% heat inactivated fetal calf serum (FCS) were irradiated (9000 rad) to arrest the cell cycle and plated onto 12-well tissue culture plates for 24 h at 37°C. After infection with 10^5 T. cruzi trypomastigotes per well for 2 hours, monolayers were washed with RPMI medium and treated with the inhibitors at 10 µM in RPMI medium (triplicate wells per inhibitor). Inhibitor stocks were made to 10 mM in DMSO and diluted prior to use. All assays include untreated, K11777-treated, and uninfected macrophage controls. Fresh medium with or without inhibitor was replaced every 48 h and inhibitor efficacy was monitored daily. Survival time was defined as the time before the cell monolayer was destroyed by the infection. Under these culture conditions, T. cruzi completed the intracellular cycle in 6 days in untreated controls. […] Macrophages were subsequently cultured in normal medium for up to 40 days to elucidate if the effective inhibitors were trypanocidal (cure host macrophages) or trypanostatic (delay intracellular cycle of the parasite).

The subject of assay [3] is T. cruzi CA-I/72 infected C3H mice. Briefly: Murine model of acute Chagas' disease. Format: in vivo, mouse. Also noted: key to Histopathology, Heart / Histopathology, Liver / Histopathology, Spleen / Histopathology, Colon: I/I: Inflammation and infiltration; +10A: Numerous nests of T. cruzi amastigotes; +A: 1-3 nests of T. cruzi amastigotes; Negative. Here is the method:
Three to four week old female C3H mice weighing ca. 20 g were used. The animals were separated into five lots of 5 mice per cage and infected with 10^6 tissue-culture derived trypomastigotes of the myotropic T. cruzi CA-I/72 cloned stock. The mice were treated with 100 mg compound/kg of body weight in 100 µL of solution (30–40% DMSO: 60–70% sterile distilled water) intraperitoneally twice a day. Treatment was initiated 12 h post infection and continued until cure, death of the animals, or for a total of 20 days. […] Parasitemias was determined at the end of the experiment when animals were euthanized. Tissues processed for histopathology include skeletal muscle, heart, liver, spleen, and colon. Blood (5–50 µL) was used for hemocultures. […] Compounds were considered toxic if life expectancy is lower than untreated controls (negative values). If necessary, PCR of blood and tissues was performed to confirm effectiveness of treatment and/or cure of treated animals. Results were expressed as survival (days) of treated animals.

Assay [4] addresses T2, Cathepsin C (Homo sapiens, UniProt P53634).
T2 construct: Reaction Biology Corp (screening service)
Briefly: Protease inhibition profiling (Reaction Biology Corp): Cathepsin C. Format: biochemical.

For assay [5], the target named is T3, calpain-1 (Homo sapiens, UniProt P07384).
T3 construct: Reaction Biology Corp (screening service)
T3 sequence (P07384 1-714): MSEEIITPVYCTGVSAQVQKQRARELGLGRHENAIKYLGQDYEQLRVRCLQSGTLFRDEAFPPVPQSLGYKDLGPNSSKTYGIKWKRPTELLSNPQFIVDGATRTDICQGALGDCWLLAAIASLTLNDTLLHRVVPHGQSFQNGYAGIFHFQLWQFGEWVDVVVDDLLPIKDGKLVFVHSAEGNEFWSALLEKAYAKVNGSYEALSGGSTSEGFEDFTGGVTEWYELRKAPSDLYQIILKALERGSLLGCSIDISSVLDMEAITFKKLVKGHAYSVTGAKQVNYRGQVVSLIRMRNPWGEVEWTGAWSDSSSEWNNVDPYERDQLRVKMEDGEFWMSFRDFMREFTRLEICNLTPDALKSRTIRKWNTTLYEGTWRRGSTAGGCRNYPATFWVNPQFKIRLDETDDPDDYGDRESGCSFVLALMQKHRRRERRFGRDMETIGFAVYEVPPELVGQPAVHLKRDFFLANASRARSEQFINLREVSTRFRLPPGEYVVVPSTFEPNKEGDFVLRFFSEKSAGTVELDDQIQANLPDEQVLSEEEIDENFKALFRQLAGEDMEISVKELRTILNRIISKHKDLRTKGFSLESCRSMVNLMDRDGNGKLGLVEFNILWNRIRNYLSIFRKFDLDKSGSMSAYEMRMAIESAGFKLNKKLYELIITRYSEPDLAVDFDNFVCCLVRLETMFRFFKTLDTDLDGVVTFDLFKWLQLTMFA
T3 sequence (P04632 1-268 partner): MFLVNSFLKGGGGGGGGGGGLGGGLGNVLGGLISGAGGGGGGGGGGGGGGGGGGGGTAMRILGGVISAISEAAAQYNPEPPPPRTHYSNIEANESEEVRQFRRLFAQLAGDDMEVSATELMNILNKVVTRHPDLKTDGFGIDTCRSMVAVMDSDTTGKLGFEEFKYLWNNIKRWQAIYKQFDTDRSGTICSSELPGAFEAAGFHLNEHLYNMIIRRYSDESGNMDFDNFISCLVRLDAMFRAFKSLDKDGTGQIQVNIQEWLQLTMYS
Briefly: Protease inhibition profiling (Reaction Biology Corp): calpain-1. The class given is biochemical. Conditions: panel of 70 proteases.

[6] abbreviates: individual infected mice, 100 mg/kg ip.
The mark [7] stands for this setting: individual infected mice, 100 mg/kg ip, 100 mg/kg.

Several values for one entry are separate records, joined by “and”; a condition that tells them apart may be missing. Equal values may be shown once. Entries after “also recorded” stand apart in the source; their conditions may differ.

T1 sequence (P25779 123-337 limits assumed): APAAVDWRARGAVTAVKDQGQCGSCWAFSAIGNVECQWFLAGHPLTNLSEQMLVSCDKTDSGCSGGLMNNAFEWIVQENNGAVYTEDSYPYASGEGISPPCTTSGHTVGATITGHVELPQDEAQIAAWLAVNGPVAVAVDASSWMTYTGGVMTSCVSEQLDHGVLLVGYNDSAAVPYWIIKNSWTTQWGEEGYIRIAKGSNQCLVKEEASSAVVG
T2 sequence (P53634 25-463, species assumed): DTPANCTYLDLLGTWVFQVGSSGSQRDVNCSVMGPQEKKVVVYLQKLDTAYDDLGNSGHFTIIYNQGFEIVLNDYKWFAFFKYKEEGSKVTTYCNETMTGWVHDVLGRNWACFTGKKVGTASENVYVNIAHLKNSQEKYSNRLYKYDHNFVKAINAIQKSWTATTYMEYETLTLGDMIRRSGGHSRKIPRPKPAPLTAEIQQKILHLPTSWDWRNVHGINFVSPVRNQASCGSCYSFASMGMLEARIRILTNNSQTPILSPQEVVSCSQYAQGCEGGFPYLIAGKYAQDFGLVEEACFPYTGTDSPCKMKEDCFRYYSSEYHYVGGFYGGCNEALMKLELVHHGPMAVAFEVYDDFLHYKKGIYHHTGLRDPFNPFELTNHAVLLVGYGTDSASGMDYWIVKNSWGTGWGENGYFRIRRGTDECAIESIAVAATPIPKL

A word on the IC50: it is the point on the concentration scale where inhibition reaches its midpoint. For `CN1CCN(C(=O)N[C@@H](CCCNC(=N)N)C(=O)N[C@H](/C=C/S(=O)(=O)c2ccccc2)CCc2ccccc2)CC1` [WRR-483], the “k obs/[I] at 1 µM, Cruzain” value in assay [1] is 4,800 s^-1 M^-1 and 4,800±480 s^-1 M^-1. Moreover, in assay [2], the “T. cruzi infected cell survival” value is on record as 47 days. The “T. cruzi infected mouse survival” value in assay [3] (100 mg inhibitor/kg body weight in two daily doses, intraperitoneally, untreated control 21 days) worked out at 110 days. In assay [3] (10^6 trypomastigotes CA-I/72, untreated controls died within 21–60 days), the “survival of the acute infection” value is “survived the acute infection”. In assay [3] (setting [6]), the “Histopathology, Colon” value is listed as “N”; the “Histopathology, Liver” value is given as “N”; the “Histopathology, Spleen” value was “N”. Also, in assay [3] (setting [7]), the “Histopathology, Heart” value is “N and Mild i/i”; the “Histopathology, Sk. muscle” value is on record as “Moderate i/i; also recorded: +AIntense i/i”. In addition, the IC50 in assay [4] was 7 ± 0.9 nM. For the same molecule, the “inhibition of calpain-1” value in assay [5] is given as “no inhibition”.
